The values below are quoted from earlier work in patent publication US20080051430A1, “Acylated Piperidine Derivatives as Melanocortin 4-Receptor Agonists” (priority 2004, published 2008).

In series [1] the test system is men with a variety of organic risk factors. As to conditions: subcutaneous injection; compared with placebo.
For series [2] the following is noted: in vivo, po.
Series [3] deals with males with psychogenic erectile dysfunction.

With “Ac-Nle-c[Asp-His-DPhe-Arg-Trp-Lys]-NH2 [MT-II]”, the “level of sexual desire” value in series [1] was “significantly higher”. For the same substance, in series [2], the “absorption into the systemic circulation” value is recorded as “not absorbed into the systemic circulation”. Besides, in series [3] (in vivo), the duration of action result was “approximately 2.5 hours” and the “time to onset of erection” value is 10 to 20 min. Further, the response rate in series [3] (injected intramuscularly or subcutaneously) was 75%.
